{"source": "patent US12241902B2", "about": "“Probes for detection of copper” (The Regents of the University of California, priority 2019, dated 2025)", "key": {"[1]": {"test": "UV-vis absorption and emission measurements in aqueous buffer", "format": "physicochemical", "settings": "for molar extinction coefficient: PBS, glutathione 2 mM, PEG-400 40% v/v", "protocol": "UV-vis absorption and emission measurements. FCP-1 stock solution in DMSO (5 mM) was prepared, aliquoted and stored at […]. For each spectroscopic measurement, a fresh aliquot was diluted to 500 μM by DMSO and further diluted with PBS containing 2 mM GSH/PEG-400 mixture (3:2, v/v) to prepare the sensing solution with 5 μM of FCP-1. The sensing solution was pre-incubated in a water bath at 37° C., and then [Cu(CH3CN)](PF6) in MeCN or other metal ions in H2O was added. The solution mixture was kept at 37° C. and taken out for UV-vis absorption or emission spectroscopic measurements in quartz cuvette at predetermined time intervals. Emission spectra were corrected using coumarin 153 as secondary emission standard (4). Photoluminescence quantum yield (PLQY) was determined using fluorescein in 0.1 M NaOH solution (0.95; λex=496 nm). FRET efficiency from the fluorescein moiety to rhodamine moiety of FCP-1 was estimated by [1−(PLQY of FCP-1/PLQY of FL-TPA)].\nFCP-1 in PBS buffer containing glutathione (2 mM) and PEG-400 (40%, v/v) was evaluated. […] The first two absorption maxima corresponded to the absorption of the fluorescein moiety, as similar absorption maxima at 460 and 489 nm were found in the absorption spectra of FL-TPA (FIG. 4), whereas the lowest energy absorption at 552 nm originated from the rhodamine moiety (FIG. 4). […] Together with the significant contribution of the lower-energy fluorescence from the excitation at 450-500 nm, which is in the region of FL-TPA absorption (FIG. 6), the data support the occurrence of FRET from the fluorescein donor to the rhodamine acceptor. Using FL-TPA as a reference FRET donor compound (FIG. 7) with assumption that quenching of donor fluorescence originated only from the FRET process, the FRET efficiency in the FCP-1 cassette is estimated to be 84%."}, "[2]": {"tested_on": "labile Cu(I) in Ctr1^−/− MEFs", "test": "Confocal fluorescence imaging of labile Cu(I) in Ctr1-/- MEFs", "format": "cell-based, mouse", "protocol": "(A) Confocal fluorescence microscopy images of Ctr1^+/+ MEFs and Ctr1^−/− MEFs treated with solvent control, CuCl2 (100 or 300 μM) or BCS (500 μM) in complete medium for 8 h, washed with complete medium and PBS, incubated with FCP-1 (5 μM) in DPBS for 45 min, and then imaged with λex=458 nm. (B) Average cellular ratiometric emission ratios of FCP-1, Fgreen/Forange, as determined from experiments performed in triplicate. (C) Total cellular ^63Cu levels were determined by ICP-MS experiments (with normalization of different cell numbers by total cellular ^31P level). (D) Confocal fluorescence microscopy images of Ctr1^+/+ MEFs and Ctr1^−/− MEFs incubated with FL-TPA (5 μM) in DPBS for 45 min. The cells were then imaged with λex=488 nm. (E) Average cellular fluorescence intensity of FL-TPA, FFL-TPA, determined from experiments performed in triplicate with λex=488 nm. Error bars denote SD (n=3). *p<0.05, **p<0.01 and ***p<0.001.\nCell culture. Following cell cultures were grown: Human embryonic kidney (HEK 293T) cells were maintained in Dulbecco's Modified Eagle Medium (DMEM) supplemented with 10 vol % fetal bovine serum (FBS), 1 vol % GlutaMax (Gibco) and 1 vol % non-essential amino acids (NEAA, Gibco). Ctrl1^+/+ and Ctr1^−/− MEF cells were maintained in DMEM with 10 vol % FBS, 1 vol % non-essential amino acids, 1 vol % sodium pyruvate and 0.1 vol % 2-mercaptoethanol or DMEM supplemented with 10 vol % FBS and 1× Penicillin-Streptomycin. Human cervical epithelial carcinoma (HeLa) was maintained in DMEM medium supplemented with 1 vol % GlutaMAX and 10 vol % FBS. […]\nConfocal fluorescence microscopy imaging. For confocal fluorescence imaging experiments of HEK293T, MEF Ctr1^+/+ and Ctr1^−/− and HeLa cells, the cells were plated on 8-well Lab Tek borosilicate chambered coverglass slides (Nunc), and allowed to grow to ca. 60% confluency before performing the cell imaging experiments. […] For quantification, a threshold value was set as background and the average intensity of the whole image was measured by ImageJ. […]"}}, "note": "Where “and” joins values, the source holds several entries; their conditions need not be identical. Equal entries are not always repeated.", "data": [{"smiles": "CC[N+](CC)=c1ccc2c(-c3ccccc3C(=O)O)c3ccc(N4CCN(Cc5cccc(CN(Cc6ccccn6)Cc6cccc(COc7ccc8c(-c9ccccc9C(=O)OC)c9ccc(=O)cc-9oc8c7)n6)n5)CC4)cc3oc-2c1", "note": "[FCP-1]", "values": [{"measurement": "FRET efficiency", "setting": "[1]; FL-TPA as reference FRET donor, 1−(PLQY of FCP-1/PLQY of FL-TPA)", "value": 84, "unit": "%"}, {"measurement": "absorption maxima", "setting": "[1]; PBS buffer containing glutathione (2 mM) and PEG-400 (40%, v/v)", "value": "465 nm and 493 nm and 552 nm"}, {"measurement": "molar extinction coefficient", "setting": "[1]; at 465 nm", "value": "20,000 M^−1 cm^−1"}, {"measurement": "molar extinction coefficient", "setting": "[1]; at 493 nm", "value": "22,100 M^−1 cm^−1"}, {"measurement": "molar extinction coefficient", "setting": "[1]; at 552 nm", "value": "40,000 M^−1 cm^−1"}, {"measurement": "emission wavelength", "setting": "[1]; photoexcitation at 458 nm", "value": "526 nm and 576 nm"}, {"measurement": "cellular viability by nuclear stain DRAQ5", "setting": "[2]; Ctr1−/− MEFs (FIG. 14)", "value": "cellular viability was maintained"}, {"measurement": "Fgreen/Forange ratio after CuCl2", "setting": "[2]; Ctr1−/− MEFs incubated with CuCl2", "value": "no statistically significant changes"}, {"measurement": "Fgreen/Forange ratio after BCS", "setting": "[2]; Ctr1−/− MEFs, BCS (500 μM)", "value": "reduction in Fgreen/Forange ratio"}]}]}
